From patent US9253983B2, “Triazole compound and use thereof” (KUREHA CORPORATION, priority 2011, dated 2016)

Assays:
Botrytis cinerea [1] = test: Controlling effect on cucumber gray mold by foliage spray treatment (Tests 1 and 2); assay type: in vivo; conditions: four days after inoculation
Method: The cucumber plants had been grown in square plastic pots (6 cm×6 cm). After the suspension was then left to dry, paper discs (8 mm in diameter) impregnated with a spore suspension of Botrytis cinerea w ere placed on the leaves, and the plants were kept at 20° C. in a high humidity environment. Four days after inoculation, the lesion degree of the cucumber gray mold was examined in accordance with the criteria shown in Table 1, and the protective values were calculated by the following equation: Protective value (%)=(1−Average lesion degree in sprayed plot/Average lesion degree in unsprayed plot)×100.
The cucumber plants had been grown in square plastic pots (6 cm×6 cm). After the leaves were air-dried, paper discs (8 mm in diameter) impregnated with a spore suspension of cucumber graymold-causing microorganisms were placed on the leaves, and the plants were kept at 20° C. in a high humidity environment. 4 days after the inoculation, the lesion degree of the cucumber gray mold was examined, and the protective values were calculated as were in Experiment Example 1.

Puccinia recondita = test: Controlling effect on wheat brown rust (leaf rust) by foliage spray treatment (Tests 1 and 2); assay type: in vivo; conditions: foliage spray 0.8 mg/L, 1,000 L/ha, 11 days after inoculation
Method: The wheat plants had been grown in square plastic pots (6 cm×6 cm). The suspensions were left to dry, and inoculated with spores of Puccinia recondita (adjusted at 200 spores per field of vision, Gramin S was added at 60 ppm) by spraying, and kept at 25° C. in a high humidity environment for 48 hours. After that, the plants were kept in a greenhouse. 11 days after the inoculation, the lesion degree of the wheat leaf rust was examined in accordance with the criteria shown in Table 4, and the protective values were calculated by the following equation. Protective value (%)=(1−Average lesion degree in sprayed plot/Average lesion degree in unsprayed plot)×100
The wheat plants had been grown in square plastic pots (6 cm×6 cm). The leaves were air-dried, and inoculated with spores of Puccinia recondita (adjusted at 200 spores per field of vision, Gramin S was added at 60 ppm) by spraying, and kept at 25° C. in a high humidity environment for 48 hours. After that, the plants were kept in a greenhouse. 11 days after the inoculation, the lesion degree of the wheat leaf rust was examined, and the protective values were calculated as were in Experiment Example 2.

wheat = test: Necrosis (adverse effects) of seed treatment on wheat seeds; assay type: in vivo; conditions: 20 days after sowing
Method: A pot experiment was performed to evaluate necrosis (adverse effects) caused by the seed treatment. Compound (1-1a) and Compound (1-2a), each which was dissolved in DMSO to make up such a concentration that the seeds would be treated in treatment amount of 2 g to 200 g ai/100 kg seeds, were each applied to wheat seeds in a vial, and thereafter 8 wheat seeds were sowed in an 80-cm^2 pot. The pot was kept in a greenhouse with water supplied to its bottom. 20 days after the sowing, an extent of necrosis (percentage of necrotic surface area) of wheat was evaluated. A necrosis index was derived from the percentage of the necrotic surface area, based on the criteria shown by Table 13. In Table 13, a smaller necrosis index indicates a lesser adverse effect of necrosis caused by the treatment with the use of a plant disease controlling agent.

Rhizopus oryzae = test: Test 1 for antifungal effect, plate medium: R.o; assay type: cell-based; conditions: PDA plate medium
Method: (§1) Compound (1-1a) or Compound (1-2a) was dissolved in dimethyl sulfoxide, and the resulting solution was added to a PDA medium (potato dextrose-agar medium) at about 60° C. The medium and the solution were mixed thoroughly in a conical flask, poured into a petri dish, and allowed to solidify. In this way, a plate medium containing Compound (1-1a) or Compound (1-2a) at a certain concentration was prepared.
(§2) Meanwhile, test microorganisms cultured on a plate medium in advance were cut out with the use of a cork borer 4 mm in diameter, and were inoculated onto the compound-containing plate medium. After the inoculation, the microorganisms were cultured at their optimum growth temperatures (for example, refer to LIST OF CULTURES 1996 microorganisms 10th edition, Institute for Fermentation (foundation)) for 1 day to 7 days, and their growth was determined by measuring the diameter of their flora. The extent of growth of the microorganisms on the compound-containing plate medium was compared with that of microorganisms on a plate medium where no compound was added, and mycelial growth inhibition rate was calculated by the following equation: R=100(dc−dt)/dc where R is mycelial growth inhibition rate (%), dc is the flora diameter in untreated plate, and dt is the flora diameter in plate treated with the compound.
(§3) A larger antifungal index indicates a better antifungal effect.

Botrytis cinerea [2] = test: Test 1 for antifungal effect, plate medium: B.c; assay type: cell-based; conditions: PDA plate medium
Method: as §1, §2, §3

Glomerella cingurata = test: Test 1 for antifungal effect, plate medium: G.c; assay type: cell-based; conditions: PDA plate medium
Method: as §1, §2, §3

Pyrenophora graminea = test: Test 2 for antifungal effect, plate medium: P.g; assay type: cell-based; conditions: PDA plate medium
Method: as §1, with “(1-1b)” for “(1-1a)”, “(1-2b)” for “(1-2a)”
Meanwhile, test microorganisms cultured on a plate medium in advance were cut out with the use of a cork borer 4 mm in diameter, and were inoculated onto the compound-containing plate medium. After the inoculation, the pathogens were cultured at their optimum growth temperatures (for example, refer to LIST OF CULTURES 1996 microorganisms 10th edition, Institute for Fermentation (foundation)) for 1 day to 7 days, and their growth was determined by measuring the diameter of their flora. The extent of growth of the pathogens on the compound-containing plate medium was compared with that of pathogens on a plate medium where no compound was added, and mycelial growth inhibition rate was calculated as in Experiment Example 10. Note that, in Experiment Example 11, controls used in the antifungal effect tests are Compound (1-1a) and Compound (1-2a) instead of Compound (1-1b) and Compound (1-2b), respectively.
The results were rated on a 1-to-5 scale as in Experiment Example 10.

[3] = foliage spray 3.1 mg/L, 1,000 L/ha
[4] = foliage spray 12.5 mg/L, 1,000 L/ha
[5] = treatment amount 2 g ai/100 kg seeds
[6] = treatment amount 20 g ai/100 kg seeds
[7] = treatment amount 200 g ai/100 kg seeds

Structure (SMILES) | Protective value (%) (Botrytis cinerea [1]; [3]) | Protective value (%) (Botrytis cinerea [1]; [4]) | Protective value (%) (Puccinia recondita) | Necrosis index (wheat; [5]) | Necrosis index (wheat; [6]) | Necrosis index (wheat; [7]) | Antifungal index (mycelial growth inhibition rate) (Rhizopus oryzae; 0.16 mg/L) | Antifungal index (mycelial growth inhibition rate) (Rhizopus oryzae; 0.31 mg/L) | Antifungal index (mycelial growth inhibition rate) (Rhizopus oryzae; 0.63 mg/L) | Antifungal index (mycelial growth inhibition rate) (Rhizopus oryzae; 1.25 mg/L) | Antifungal index (mycelial growth inhibition rate) (Rhizopus oryzae; 2.50 mg/L) | Antifungal index (mycelial growth inhibition rate) (Botrytis cinerea [2]; 0.16 mg/L) | Antifungal index (mycelial growth inhibition rate) (Botrytis cinerea [2]; 0.31 mg/L) | Antifungal index (mycelial growth inhibition rate) (Botrytis cinerea [2]; 0.63 mg/L) | Antifungal index (mycelial growth inhibition rate) (Botrytis cinerea [2]; 1.25 mg/L) | Antifungal index (mycelial growth inhibition rate) (Botrytis cinerea [2]; 2.50 mg/L) | Antifungal index (mycelial growth inhibition rate) (Glomerella cingurata; 0.16 mg/L) | Antifungal index (mycelial growth inhibition rate) (Glomerella cingurata; 0.31 mg/L) | Antifungal index (mycelial growth inhibition rate) (Glomerella cingurata; 0.63 mg/L) | Antifungal index (mycelial growth inhibition rate) (Glomerella cingurata; 1.25 mg/L) | also measured
CC1(CCl)CCC(Cc2ccc(F)cc2)C1(O)Cn1cncn1 (single isomer, unassigned) [Compound (1-2a), (1,2-cis, 1,5-cis)-5-(4-fluorobenzyl)-2-chloromethyl-2-methyl-1-(1H-1,2,4-triazole-1-ylmethyl)cyclopentanol] | 40% | 100% | 91% | 0 (Less than 1%) | 0 (Less than 1%) | 0 (Less than 1%) | 1 (Less than 60%) | 1 (Less than 60%) | 3 (Less than 80% but not less than 70%) | 5 (90% or greater) | 5 (90% or greater) | 3 (Less than 80% but not less than 70%) | 5 (90% or greater) | 5 (90% or greater) | 5 (90% or greater) | 5 (90% or greater) | 5 (90% or greater) | 5 (90% or greater) | 5 (90% or greater) | 5 (90% or greater) | Antifungal index (mycelial growth inhibition rate) (Glomerella cingurata; 2.50 mg/L): 5 (90% or greater); Antifungal index (mycelial growth inhibition rate) (Pyrenophora graminea; 0.04 mg/L): 1 (Less than 60%); Antifungal index (mycelial growth inhibition rate) (Pyrenophora graminea; 0.08 mg/L): 2 (Less than 70% but not less than 60%); Antifungal index (mycelial growth inhibition rate) (Pyrenophora graminea; 0.16 mg/L): 4 (Less than 90% but not less than 80%); Antifungal index (mycelial growth inhibition rate) (Pyrenophora graminea; 0.31 mg/L): 5 (90% or greater); Antifungal index (mycelial growth inhibition rate) (Pyrenophora graminea; 0.63 mg/L): 5 (90% or greater); Antifungal index (mycelial growth inhibition rate) (Pyrenophora graminea; 1.25 mg/L): 5 (90% or greater)
CC1(CCl)CCC(Cc2ccc(F)cc2)C1(O)Cn1cncn1 (single isomer, unassigned) [Compound (1-2b), (1,2-cis, 1,5-cis)-5-(4-fluorobenzyl)-2-chloromethyl-2-methyl-1-(1H-1,2,4-triazole-1-ylmethyl)cyclopentanol] | 15% | 98% | 80% | 0 (Less than 1%) | 3 (20% or more) | 3 (20% or more) | 1 (Less than 60%) | 1 (Less than 60%) | 1 (Less than 60%) | 1 (Less than 60%) | 2 (Less than 70% but not less than 60%) | 1 (Less than 60%) | 3 (Less than 80% but not less than 70%) | 5 (90% or greater) | 5 (90% or greater) | 5 (90% or greater) | 3 (Less than 80% but not less than 70%) | 4 (Less than 90% but not less than 80%) | 5 (90% or greater) | 5 (90% or greater) | Antifungal index (mycelial growth inhibition rate) (Glomerella cingurata; 2.50 mg/L): 5 (90% or greater); Antifungal index (mycelial growth inhibition rate) (Pyrenophora graminea; 0.04 mg/L): 4 (Less than 90% but not less than 80%); Antifungal index (mycelial growth inhibition rate) (Pyrenophora graminea; 0.08 mg/L): 5 (90% or greater); Antifungal index (mycelial growth inhibition rate) (Pyrenophora graminea; 0.16 mg/L): 5 (90% or greater); Antifungal index (mycelial growth inhibition rate) (Pyrenophora graminea; 0.31 mg/L): 5 (90% or greater); Antifungal index (mycelial growth inhibition rate) (Pyrenophora graminea; 0.63 mg/L): 5 (90% or greater); Antifungal index (mycelial growth inhibition rate) (Pyrenophora graminea; 1.25 mg/L): 5 (90% or greater)
